The text below walks through data of PMC6237158, “HPLC–UV assay for the evaluation of inhibitors of plasma amine oxidase using crude bovine plasma” (Journal of Enzyme Inhibition and Medicinal Chemistry, 2018).

What is called IC50 is the concentration at which inhibition is half-maximal. Read a high IC50 as weaker potency in that assay.

Assay [1] has as its target T1, PAO in bovine plasma (Bos taurus, UniProt Q29437).
T1 construct: crude bovine plasma can be used as enzyme source in this assay instead of the purified enzyme; tissue Coesfelder Fleischhandelsgesellschaft, Bernd Grewe (Coesfeld, Germany); host or cells: heparinised bovine blood plasma
T1 sequence (Q29437 17-762): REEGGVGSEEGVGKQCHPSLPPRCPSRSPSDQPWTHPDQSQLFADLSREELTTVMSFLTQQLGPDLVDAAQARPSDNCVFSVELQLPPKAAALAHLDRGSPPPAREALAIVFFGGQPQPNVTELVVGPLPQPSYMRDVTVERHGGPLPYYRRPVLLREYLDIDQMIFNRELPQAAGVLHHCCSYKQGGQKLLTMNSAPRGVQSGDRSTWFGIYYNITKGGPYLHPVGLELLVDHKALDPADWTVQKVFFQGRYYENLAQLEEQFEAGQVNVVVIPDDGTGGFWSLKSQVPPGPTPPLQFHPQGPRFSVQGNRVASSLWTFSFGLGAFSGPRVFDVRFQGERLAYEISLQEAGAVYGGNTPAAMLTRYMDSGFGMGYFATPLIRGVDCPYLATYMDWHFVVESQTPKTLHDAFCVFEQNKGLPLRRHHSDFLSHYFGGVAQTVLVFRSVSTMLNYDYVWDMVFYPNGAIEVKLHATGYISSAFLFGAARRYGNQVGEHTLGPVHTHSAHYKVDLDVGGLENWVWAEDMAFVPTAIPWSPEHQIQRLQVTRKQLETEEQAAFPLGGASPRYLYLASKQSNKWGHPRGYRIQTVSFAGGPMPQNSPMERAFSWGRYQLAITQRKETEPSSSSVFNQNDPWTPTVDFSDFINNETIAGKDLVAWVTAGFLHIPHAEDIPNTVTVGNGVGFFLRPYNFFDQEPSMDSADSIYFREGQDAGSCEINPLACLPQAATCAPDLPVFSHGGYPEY
The assay can be described thus: Conversion of amine substrates by bovine plasma (HPLC-UV). The assay is classed as biochemical. As to conditions: substrate 250 µM, 6 µL bovine plasma in final volume 100 µL; mean ± SD, n = 3. How it is done:
Determination of the conversion rates of different amine substrates by bovine plasma. The conversion rates of the amine substrates 1–7 to the corresponding aldehydes 8–14 by bovine plasma was measured as described previously, with the modification that the solution of the isolated PAO in PBS (0.19 mg/mL) (95 µL) was replaced by PBS (89 µL) and bovine plasma (6 µL).

The target of assay [2] is T2, purified bovine PAO (Bos taurus, UniProt Q29437).
T2 construct: bovine PAO purified from bovine plasma; purchased Abnova, Taipei, Taiwan delivered via Biozol, Eching, Germany; host or cells: bovine plasma
T2 sequence (Q29437 17-762): T1 sequence (Q29437 17-762)
Also on record: method as in PMID 27129976, PMID 29550344. As to conditions: substrate 250 µM, 18 µg purified PAO in final volume 100 µL; mean ± SD, n = 3; cited from earlier work.

Assay [3] addresses T1, PAO in bovine plasma. The assay can be described thus: Inhibitor screening with pre-incubation of bovine plasma with the inhibitor (HPLC-UV). The assay is classed as biochemical. As to conditions: for block of substrate transformation, bovine plasma: 10 µM, pre-incubation conditions; for IC50: with pre-incubation of enzyme and inhibitor (15 min, 37 °C), n = 3. How it is done: General procedure for inhibitor screening with pre-incubation of bovine plasma with the inhibitor. To a DMSO solution of the appropriate inhibitor (concentration variable) (2.5 µL) was added a dilution of bovine plasma in PBS (95 µL), prepared by mixing 89 volume parts of PBS with 6 volume parts of bovine plasma. The resulting mixture was pre-incubated at 37 °C for 15 min. Then the incubation was started at 37 °C by addition of a solution of the substrate 4 (10 mM) in DMSO (2.5 µL). After 45 min, the enzyme reaction was terminated by the addition of acetonitrile (100 µL). The samples were further treated and analysed as described above in the inhibition experiments done without pre-incubation. Controls (n = 3) and a blank were prepared analogously. The experiments using benzylamine (7) as substrate were carried out in the same way with the modifications that aliquots (150 µL) of the supernatants obtained after addition of acetonitrile and centrifugation were diluted with water (150 µL), and acetonitrile/aqueous ammonium acetate solution (10 mM, pH 6) (45:55, v/v) was used as eluent at a detection wavelength of 250 nm.

In assay [4] the target is T3, purified PAO (Bos taurus, UniProt Q29437).
T3 construct: we used the enzyme isolated and purified from bovine plasma; host or cells: bovine plasma
T3 sequence (Q29437 17-762): T1 sequence (Q29437 17-762)
The assay can be described thus: Inhibition of purified PAO after pre-incubation of enzyme with inhibitor. Type of assay: biochemical, bovine. As to conditions: 10 µM; pre-incubation conditions. From the text:
2-(4-Phenylphenyl)acetohydrazide (16) is known to inhibit PAO by forming covalent bonds with the cofactor topaquinone.
Finally, we wanted to confirm that the amine oxidases MAO A, MAO B, and DAO are not involved in substrate conversion by bovine plasma using specific inhibitorsof these enzymes.

Assay [5] deals with DAO. Also on record: method as in PMID 29550344. As to conditions: 10 µM; pre-incubation conditions; cited from earlier work.
In assay [6] the test system is MAO A. Details: method as in PMID 29550344. As to conditions: 0.1 µM; pre-incubation conditions; cited from earlier work.
Assay [7] addresses T1, PAO in bovine plasma. Put plainly: Inhibitor screening without pre-incubation of bovine plasma with the inhibitor (HPLC-UV). The assay is classed as biochemical. As to conditions: without pre-incubation of enzyme and inhibitor, n = 3. How it is done:
Determination of the IC50-values of the PAO inhibitor 2-(4-phenylphenyl)acetohydrazide (16) with bovine plasma using different substrates.
General procedure for inhibitor screening without pre-incubation of bovine plasma with the inhibitor. A mixture of a DMSO solution of 4 (10 mM) (2.5 µL), a DMSO solution of the appropriate inhibitor (concentration variable) (2.5 µL) and PBS buffer (pH 7.4) (89 µL) was treated with bovine plasma (6 µL). After incubation at 37 °C for 45 min, the enzyme reaction was terminated by the addition of acetonitrile (100 µL). The sample was cooled in an ice bath for 10 min and centrifuged at 12,000 × g and 10 °C for 5 min. An aliquot of the supernatant (150 µL) was diluted with aqueous TRIS buffer (100 mM, pH 8.5 at 20 °C) (150 µL), allowed to stand at room temperature for 30 min, and analysed by HPLC. The HPLC–UV-system consisted of a Thermo Scientific Dionex UltiMate 3000 system including an autosampler and a variable wavelength detector (ThermoFisher Scientific, Germering, Germany). Separation was achieved on a Luna 3 u C8(2) analytical column (3 mm inside diameter× 150 mm, particle size 3 µm) (Phenomenex, Aschaffenburg, Germany) protected with a Phenomenex Phenyl guard column (3 mm inside diameter ×4 mm). The injection volume was 50 µL. Temperature of the autosampler was set to 10 °C, the temperature of the column oven was 20 °C. HPLC analysis was run isocratically using acetonitrile/aqueous TRIS buffer (50 mM, pH 8.5 at 20 °C) (35:65, v/v) as eluent at a flow rate of 0.4 mL/min. […] Controls with DMSO (2.5 µL) instead of a DMSO solution of the inhibitor (2.5 µL) were prepared in the same manner in parallel (n = 3). Furthermore, a blank incubation, in which the enzyme solution was replaced by the buffer used for dissolving the enzyme, was carried out. The relative inhibition values were determined at different inhibitor concentrations and calculated as the ratio of the areas of the 1,3-oxazolidine 15 peaks formed in presence and absence of the test compounds (corrected by the blank value). […] The experiments using benzylamine (7) as substrate were carried out in the same way with the modifications that aliquots (150 µL) of the supernatants obtained after addition of acetonitrile and centrifugation were diluted with water (150 µL) and acetonitrile/aqueous ammonium acetate solution (10 mM, pH 6) (45:55, v/v) was used as eluent at a detection wavelength of 250 nm.

As to `NCCCCn1nnc(-c2ccccc2)n1` [Compound 2, 4-(5-Phenyl-2H-tetrazol-2-yl)butan-1-amine], in assay [1], the “Conversion of substrate, Bovine plasma” value worked out at 66 ± 5.6%. In assay [2], the “Conversion of substrate, Purified PAO” value is 55 ± 2.6%.
Consider `NCCCCCCCCn1nnc(-c2ccccc2)n1` [Compound 6, 8-(5-Phenyl-2H-tetrazol-2-yl)octan-1-amine], for which, in assay [1], the “Conversion of substrate, Bovine plasma” value was found to be 26 ± 1.8%. For the same molecule, the “Conversion of substrate, Purified PAO” value in assay [2] is listed as 25 ± 1.2%.
As to `NC(=Nc1ccccc1)NC(=O)c1nc(Cl)c(N)nc1N` [phenamil], in assay [3], the “block of substrate transformation, bovine plasma” value (“block … bovine plasma” below) is listed as “neither of these compounds blocked the substrate transformation”. In assay [4], the “block of substrate transformation, purified PAO” value (shortened to “block … purified PAO”) is “neither of these compounds blocked the substrate transformation”. In assay [5], the “inhibition of DAO” value is given as 43%.
For `NCc1ccccc1` [Compound 7, Benzylamine], in assay [1], the “Conversion of substrate, Bovine plasma” value was 30 ± 2.0%. In addition, in assay [2], the “Conversion of substrate, Purified PAO” value is listed as 20 ± 2.1%.
On to `NCCCCCn1nnc(-c2ccccc2)n1` [Compound 3, 5-(5-Phenyl-2H-tetrazol-2-yl)pentan-1-amine], for which the “Conversion of substrate, Bovine plasma” value in assay [1] is 51 ± 4.3%. Moreover, in assay [2], the “Conversion of substrate, Purified PAO” value is given as 45 ± 1.3%.
As to `C#CCN(C)[C@H](C)Cc1ccccc1` [selegiline], in assay [3], the “block … bovine plasma” value is “neither of these compounds blocked the substrate transformation”. In addition, the “block … purified PAO” value in assay [4] was “neither of these compounds blocked the substrate transformation”.
Turning to `C#CCN(C)CCCOc1ccc(Cl)cc1Cl` [clorgiline], the “block … bovine plasma” value in assay [3] is recorded as “neither of these compounds blocked the substrate transformation”. The “block … purified PAO” value in assay [4] is reported as “neither of these compounds blocked the substrate transformation”. Further, in assay [6], the “reduction of MAO A activity” value is “more than 95%”.
With `NCCCCCCCn1nnc(-c2ccccc2)n1` [Compound 5, 7-(5-Phenyl-2H-tetrazol-2-yl)heptan-1-amine], in assay [1], the “Conversion of substrate, Bovine plasma” value amounted to 23 ± 2.1%. Besides, the “Conversion of substrate, Purified PAO” value in assay [2] was 30 ± 1.1%.
`NCCCn1nnc(-c2ccccc2)n1` [Compound 1, 3-(5-Phenyl-2H-tetrazol-2-yl)propan-1-amine]: the “Conversion of substrate, Bovine plasma” value in assay [1] stood at 5 ± 0.8%. Also, the “Conversion of substrate, Purified PAO” value in assay [2] is 12 ± 0.8%.
Consider `NCCCCCCn1nnc(-c2ccccc2)n1` [Compound 4, 6-(5-Phenyl-2H-tetrazol-2-yl)hexan-1-amine], for which, in assay [1], the “Conversion of substrate, Bovine plasma” value stood at 51 ± 1.5%. Besides, the “Conversion of substrate, Purified PAO” value in assay [2] is recorded as 57 ± 1.4%.
Consider `NNC(=O)Cc1cccc(-c2ccccc2)c1` [Compound 18, 2-(3-Phenylphenyl)acetohydrazide], for which the IC50 in assay [7] (substrate benzylamine (7)) was 620 ± 50 nM; in assay [7] (substrate hexan-1-amine 4), 20000 ± 1000 nM; in assay [3] (substrate benzylamine) it was 240 ± 30 nM; in assay [3] (substrate hexan-1-amine 4), 380 ± 20 nM.
